Reference: paper PMC8203827, “The Stand-Alone PilZ-Domain Protein MotL Specifically Regulates the Activity of the Secondary Lateral Flagellar System in Shewanella putrefaciens” (Frontiers in Microbiology, 2021)

Target: T1, MotL (sfGFP-MotL) (Shewanella putrefaciens, UniProt A0ABX8XB40)
T1 construct: gene K3G22_17145
T1 sequence (A0ABX8XB40 1-144): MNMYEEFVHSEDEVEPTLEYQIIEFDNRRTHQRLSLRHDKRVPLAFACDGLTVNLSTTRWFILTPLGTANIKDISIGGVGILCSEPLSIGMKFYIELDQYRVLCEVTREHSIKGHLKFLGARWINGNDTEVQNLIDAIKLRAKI
Experiment: radioligand spot binding on nitrocellulose, phosphorimaging
Settings: labelled compound ([…]); […] protein, […] Tris-HCl, […] NaCl, […] MgCl2, […] min, RT; protein purified from strain co-producing phosphodiesterase PdeH

SMILES: Nc1nc2c(ncn2[C@@H]2O[C@@H]3COP(=O)(O)O[C@H]4[C@@H](O)[C@H](n5cnc6c(=O)[nH]c(N)nc65)O[C@@H]4COP(=O)(O)O[C@H]3[C@H]2O)c(=O)[nH]1 [c-di-GMP]
- radioligand spot binding on nitrocellulose, phosphorimaging: Produced under these conditions, robust c-di-GMP binding to MotL could be observed
